Measured values reported in patent US6384040B1, “Condensed 4-thioxopyrimidine derivatives as microbicides” (Syngenta Crop Protection, Inc., priority 1998, dated 2002).

What was measured:
Uncinula necator = test: Action against Uncinula necator on vines; type: in vivo; conditions: vine cuttings sprayed with 200 ppm a.i., infected 24 hours later, evaluation ca. 14 days after infection
Protocol: Example B-3: Action Against Uncinula necator on Vines
5 week old vine cuttings are sprayed with a spray mixture (200 ppm a.i.) prepared from a wettable powder formulation of the test compound. The plants are infected 24 hours later by conidias from strongly infested vine leafs that are shaken off over the test plants. The plants are then incubated at 26° C. and 60% relative humidity. The evaluation of the fungal infestation is made ca. 14 days after infection.

| SMILES | control activity (Uncinula necator) | melting point |
| --- | --- | --- |
| CCCOc1nc2sc(Cl)cc2c(=S)n1CCC [Compound 1, 6-Chloro-2-propoxy-3-propyl-4-thioxo-thieno[2,3-d]pyrimidine] | complete control activity |  |
| CCCOc1nc2sc(Br)cc2c(=S)n1CCC [Compound 2, 6-bromo-2-propoxy-3-propyl-4-thioxo-thieno[2,3-d]pyrimidine] | complete control activity | 110 to 112 °C |
| CCCCn1c(OCCC)nc2sc(Cl)cc2c1=S [Compound 3, 3-butyl-6-chloro-2-propoxy-4-thioxo-thieno[2,3-d]pyrimidine] | complete control activity | 68 to 70 °C |
| CCCCn1c(OCCC)nc2sc(Br)cc2c1=S [Compound 4, 6-bromo-3-butyl-2-propoxy-4-thioxo-thieno[2,3-d]pyrimidine] | complete control activity | 95 to 97 °C |
